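How tested: cells in 96-well plates exposed to compound for 48 hours at five concentrations. Abbreviation: GI50, concentration required for 50% inhibition of growth.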 Active and inactive are the calls of the source. Rule as the data show it: active = GI50 up to about 1.1 µM and inactive = higher.
Columns and labels:
Test in all cases: NCI anticancer screen, dose series, 48 h
[1] = system: T47D
[2] = system: SF-295
[3] = system: OVCAR-4
[4] = system: SNB-75
[5] = system: HCT-116
[6] = system: PC-3
[7] = system: NCI-H522
[8] = system: MCF7
[9] = system: M14
[10] = system: UACC-62
[11] = system: MDA-MB-231
[12] = system: SF-268
[13] = system: SK-OV-3
[14] = system: Malme-3M
[15] = system: NCI-H23
[16] = system: U-251
[17] = system: HT-29
[18] = system: SK-MEL-5
[19] = system: OVCAR-3
[20] = system: SF-539

Measured: GI50

COC(=O)CC1c2ccccc2N2C(=O)Cc3c([nH]c4ccccc34)C12 (centres undefined)
inactive: [1] > 100 µM | [2] 7.93 µM | [3] 31.4 µM | [4] > 100 µM | [5] > 100 µM | [6] > 100 µM | [7] > 100 µM | [8] 34.8 µM | [9] > 100 µM | [10] > 100 µM | [11] > 100 µM | [12] > 100 µM | [13] > 100 µM | [14] 66.5 µM | [15] > 100 µM | [16] > 100 µM | [17] > 100 µM | [18] > 100 µM | [19] > 100 µM

O=[N+]([O-])c1cccc(-c2ncc3c(n2)-c2ccccc2C3)c1
inactive: [20] > 100 µM | [1] > 100 µM | [2] 54.3 µM | [3] > 100 µM | [4] 23.1 µM | [5] > 100 µM | [6] > 100 µM | [7] 24.7 µM | [8] > 100 µM | [9] > 100 µM | [10] > 100 µM | [11] 20.5 µM | [12] 51.6 µM | [13] > 100 µM | [14] > 100 µM | [15] > 100 µM | [16] 93.8 µM | [17] > 100 µM | [18] > 100 µM

C/C(=N\Nc1ccc([N+](=O)[O-])cc1[N+](=O)[O-])c1ccc2ccccc2n1
inactive: [20] 81.8 µM | [1] > 100 µM | [2] 52.6 µM | [4] 81.1 µM | [5] 57.4 µM | [6] > 100 µM | [7] 13.7 µM | [8] 89.9 µM | [9] > 100 µM | [10] 66.2 µM | [11] 49.3 µM | [12] 61 µM | [13] > 100 µM | [14] > 100 µM | [15] > 100 µM | [16] 33.1 µM | [17] 74.6 µM | [18] 47.1 µM

CCOC(=O)c1c(SC(=O)/C=C/c2ccccc2)n(-c2ccccc2)c(=S)n(-c2ccccc2)c1=O
inactive: [20] > 100 µM | [1] > 100 µM | [2] > 100 µM | [3] > 100 µM | [4] > 100 µM | [5] > 100 µM | [6] > 100 µM | [7] > 100 µM | [8] > 100 µM | [9] > 100 µM | [10] > 100 µM | [11] > 100 µM | [12] > 100 µM | [13] > 100 µM | [14] > 100 µM | [15] > 100 µM | [16] > 100 µM | [17] > 100 µM | [19] > 100 µM

Cn1c(N)c(/C=N/NC(=O)CC#N)c(=O)n(C)c1=O
inactive: [1] > 100 µM | [2] > 100 µM | [3] > 100 µM | [4] > 100 µM | [5] > 100 µM | [6] > 100 µM | [7] > 100 µM | [8] > 100 µM | [9] > 100 µM | [10] > 100 µM | [11] > 100 µM | [12] > 100 µM | [13] > 100 µM | [14] 59.8 µM | [16] > 100 µM | [17] > 100 µM | [18] > 100 µM | [19] > 100 µM

Cc1ccc(C)n1-n1c(-c2ccccc2)n[nH]c1=O
inactive: [1] > 100 µM | [2] > 100 µM | [3] > 100 µM | [4] > 100 µM | [5] > 100 µM | [6] > 100 µM | [7] > 100 µM | [8] > 100 µM | [9] > 100 µM | [10] > 100 µM | [11] > 100 µM | [12] > 100 µM | [13] > 100 µM | [14] > 100 µM | [16] > 100 µM | [17] > 100 µM | [18] > 100 µM | [19] > 100 µM

O=C(NC12CC3CC(CC(C3)C1)C2)n1cnc2cncnc21
inactive: [20] 25.1 µM | [1] 20.6 µM | [2] 21.6 µM | [4] 44.5 µM | [5] 32.7 µM | [6] 25.8 µM | [7] 16.1 µM | [8] 27.5 µM | [9] 54.7 µM | [10] 39.2 µM | [11] 70 µM | [12] 53.5 µM | [13] 17.8 µM | [14] 26 µM | [15] 37.8 µM | [16] 35.3 µM | [17] 28.4 µM | [18] 16.1 µM | [19] 18.2 µM

CC(=O)NNC1=NN(C(C)=O)C2(S1)C(=O)Nc1ccc(C)cc12 (centres undefined)
inactive: [20] > 100 µM | [1] 23 µM | [2] 97.9 µM | [3] 88.1 µM | [4] 45.7 µM | [5] > 100 µM | [6] 67.5 µM | [7] 42 µM | [8] 58.7 µM | [9] > 100 µM | [10] 39.4 µM | [11] 80.2 µM | [12] > 100 µM | [14] 49.7 µM | [15] > 100 µM | [16] 41.7 µM | [17] > 100 µM | [18] 68.5 µM | [19] > 100 µM

Cc1ccc(/N=N/C(=O)NNc2ccc(C)c([N+](=O)[O-])c2)cc1[N+](=O)[O-]
inactive: [1] 4.45 µM | [3] 19.4 µM | [4] 19.6 µM | [5] 23.7 µM | [6] 18.7 µM | [7] 20.6 µM | [8] 23.2 µM | [9] 40 µM | [10] 13.9 µM | [11] 36.6 µM | [12] 28.6 µM | [14] 30.8 µM | [15] 30.2 µM | [16] 29.9 µM | [17] 53.2 µM | [18] 22.9 µM | [19] 28.1 µM

O=[N+]([O-])c1cccc([N+](=O)[O-])c1Cl
inactive: [20] 17.9 µM | [1] 2.96 µM | [2] 16.1 µM | [3] 22.8 µM | [4] 30.3 µM | [5] 40.6 µM | [6] 13.5 µM | [7] 12.6 µM | [8] 4.24 µM | [9] 10.2 µM | [10] 17.5 µM | [11] 21.2 µM | [12] 19.4 µM | [14] 17.4 µM | [15] 16.6 µM | [16] 11 µM | [17] 19.9 µM | [18] 16.4 µM | [19] 1.29 µM

COC(=O)CNC(=O)c1cc(C)cc2c1Oc1c(cc(C)cc1C(=O)NCC(=O)OC)S2
inactive: [20] 21.3 µM | [1] > 100 µM | [2] 56.9 µM | [3] > 100 µM | [4] > 100 µM | [5] > 100 µM | [6] > 100 µM | [7] 89.7 µM | [8] 98.9 µM | [9] 42.6 µM | [10] 34.1 µM | [11] > 100 µM | [12] 99.8 µM | [13] 56 µM | [14] 17.9 µM | [15] 58.7 µM | [16] > 100 µM | [17] 47.1 µM | [19] 38.5 µM

— ChEMBL document CHEMBL1201862, “PubChem BioAssay data set” (2004)
